Assay results reported in patent publication US20110082204A1, “N-alkylcarbonyl-amino acid ester and N-alkylcarbonyl-amino lactone compounds and their use” (priority 2006, published 2011).

Legend:
[1] = Log P of tested compounds; format: physicochemical
[2] = system: philtrum skin; test: Cooling sensation after ointment applied to philtrum skin; format: in vivo, human; conditions: for Duration of cooling, Philtrum Skin: 5 mg/ml in Aquaphor ointment on philtrum skin; for duration of cooling (FIG. 1): 40 to 70 mg of 1% wt/vol (10 mg/ml) ointment on skin above the upper lips; for duration of action / onset on philtrum skin: Study 1
From the text: A reliable place for topical application is the skin above the upper lip (above the vermilion border of the lips), on the philtrum, lateral to the philtrum until the nasolabial folds, and on the lower nostrils (subnasale). This part of the face is known to be densely innervated with cold receptors, second only to the surfaces of the eyeball and anogenitalia.
The intensity of the subjective skin sensation is rated as 0, 1, 2 or 3 with: 0 as no change; 1 as slight coolness, cold, or tingling; 2 as clear-cut signal of coolness, cold, or tingling; and 3 as robust cooling or cold. The intervals for recording sensations are 5 to 10 minutes, until two successive zeroes are obtained. The results (shown in FIG. 1) are averaged values of 4 to 6 separate trials in the same individual. The data are plotted using SigmaPlot® (Systat Software, Point Richmond Calif.) and a smoothing function with a negative exponential was used for analysis and statistical fit of the results. Confirmatory trials of cooling action of the long-acting NACE compounds were obtained in 2 to 4 individuals but not quantified for some because of the large number of chemicals that were evaluated
(§1) The onset of drug action is taken as the time to reach 2 units of coolness intensity, and offset of drug action is the time when coolness intensity drops below 2, after previously surpassing 2 units. The duration of cooling action is defined as the offset time minus the onset time. […] The quality of the sensation is noted, for example, as pure refreshing coolness, or if the sensation is accompanied by irritation (stinging or burning). The quality of the sensation is not rated for intensity.
For bioassay on the skin, approximately 30 mg was stirred and dissolved in 3 g of warm liquid Aquaphor® ointment to a yield 5 to 10 mg/ml (0.5% to 1.0 wt/vol) ointment. After cooling, 40 to 70 mg of the solid ointment was placed on the tip of a plastic stick and applied to the skin above the upper lip, on the philtrum, and lateral to the philtrum, up to the nasolabial folds, of test subjects and the onset and duration of cooling sensations noted.
The intensity of the subjective skin sensation was rated as 0, 1, 2 or 3 with: 0 as no change; 1 as slight coolness, cold, or tingling; 2 as clear signal of coolness, cold, or tingling; and 3 as robust cooling or cold. The intervals for recording sensations were 5 to 10 minutes, until two successive zeroes were obtained. The results (shown in FIG. 1) are averaged values of 4 to 6 separate trials in the same individual. The data are plotted using SigmaPlot® (Systat Software, Point Richmond, Calif., USA) and a smoothing function with a negative exponential was used for analysis and statistical fit of the results.
as §1, with “was” for “is”, “was also noted: such” for “is noted, for example,”
For the results in FIG. 1, the test compounds were singly applied to the skin above the upper lips at a 40 to 70 mg dose of a 1% wt/vol (10 mg/ml) ointment. Subsequently, for the results shown in Table 3, the test dose on the philtrum was reduced to a 0.5% wt/vol (5 mg/ml) ointment. The reason for choosing a lower dose was to increase the number of trials per individual and to have a reduced chance of substances accumulating in the skin.

[3] = system: eyelids/ocular surface; test: Cooling after wiping closed eyelids with a towelette; format: in vivo, human; conditions: eye wipes, 1 mg/ml in 5%-95% v/v ethanol-distilled water
Experimental: A second method of testing was to take a towelette saturated with a test solution of the cooling agent and to wipe the towelette over the dosed eyelids. The presence or absence of cooling (or irritanty, if applicable) sensations was then recorded at 10 minute intervals until the cessation of coolness in two successive intervals.
For testing of cooling compounds delivered to the eyelids with a towelette, the following procedures were used in the experiments of Table 3 and in Study 5 and 6. Three ml of liquid suspension or solution in distilled water was added to a 0.4 g cotton rectangle (50 mm×60 mm) (CS-being, Daisan Cotton, Japan) and individually sealed with a vaccuum apparatus (Foodsaver®, Jarden Corp.). Samples were stored in the freezer or refrigerator and thawed to room temperature before use. Wiping with the cotton pad delivers 40 to 45 μl of liquid composition to the eyelids ([…] to 22 μl per eye). So, if the concentration of the test substance was 1 mg/ml, the dose delivered to both eyes is a total of ˜40 to […], or ˜20 μg per eye. This method allows a reliable delivery of test substances because the dissolved or suspended particles in solution are evenly dispersed on the cotton pad in an excess volume of liquid. The presence or absence of cooling sensations was noted as being present or absent at 5 to 10 min intervals until no coolness was noticeable in two successive test intervals. Only the duration of cooling on the ocular surface was recorded, without an attempt to quantify the intensity of the sensation.

[4] = system: dorsal surface of the tongue; conditions: threshold amount producing cooling on tongue of human volunteers; values from Watson US 04178459; cited from earlier work
[5] = system: periorbital skin; test: Ointment applied to periorbital skin: coolness, eye irritancy, alerting (Study 3); format: in vivo, human; conditions: ointment on periorbital area; for skin coolness and refreshment: conditions similar to Study 3
From the text: The ointment was also applied to the periorbital skin (upper and lower eyelids and on skin adjacent to the lateral canthus) for tests of irritancy near the eyes, and the subject is asked if irritation is present or absent. The intensity of the eye sensation is not rated.
For tests of irritancy near the eyes in Study 3 and 4, the ointment was applied to the periorbital skin (upper and lower eyelids and on skin adjacent to the lateral canthus), and the subject asked if irritation is present or absent. The intensity of the eye sensation is not rated, but just noted as being present or absent
A 1% preparation of 2-isopropyl-5-methyl-cyclohexanecarbonyl D-alanine methyl ester in Aquaphor® ointment was applied bilaterally to the periorbital area of four individuals. […] This experiment was then repeated three days later in the evening with the same individuals whose occupations required daylong activities before a computer screen.

Compound	Log P [1]	Threshold tongue [4] [µg]	other results
CC1CCC(C(C)C)C(C(=O)NC2CCOC2=O)C1 (mixture of isomers) [racemic Hsl]	2.5		
CCCCOC(=O)[C@@H](C)NC(=O)[C@@H]1C[C@H](C)CC[C@H]1C(C)C [D-Ala nBu Ester]	4.4		Duration of cooling, Philtrum Skin [2]: 80 min; Duration of cooling, Eyelids/Ocular Surface [3]: 40 min
CCCOC(=O)[C@@H](C)NC(=O)[C@@H]1C[C@H](C)CC[C@H]1C(C)C [D-Ala nPr Ester]	3.8		Duration of cooling, Philtrum Skin [2]: 108 min; Duration of cooling, Eyelids/Ocular Surface [3]: 65 min
CC(C)[C@@H]1CC[C@@H](C)C[C@H]1C(=O)N[C@@H]1CCOC1=O [D-Hsl]	2.5		duration of cooling (FIG. 1) [2]: 1.3 h
COC(=O)[C@@H](C)N(C)C(=O)[C@@H]1C[C@H](C)CC[C@H]1C(C)C [D-NMe Ala Ester]			Duration of cooling, Philtrum Skin [2]: 0 min; Duration of cooling, Eyelids/Ocular Surface [3]: 0 min
COC(=O)[C@H](NC(=O)[C@@H]1C[C@H](C)CC[C@H]1C(C)C)C(C)C [D-Val Me Ester]	4.2		
COC(=O)CCC(NC(=O)C1CC(C)CCC1C(C)C)C(=O)OC (centres unmarked) [Glu(OMe) Me Ester]	2.2		
CCOC(=O)CNC(=O)[C@@H]1C[C@H](C)CC[C@H]1C(C)C [Gly Et Ester (WS-5), reference compound]	2.9	0.2	Duration of cooling, Philtrum Skin [2]: 24 min; duration of cooling (FIG. 1) [2]: 0.5 h; duration of action / onset on philtrum skin [2]: short duration of action (less than 1 hour) on the philtrum skin or slow onset (more than 5 minutes); Duration of cooling, Eyelids/Ocular Surface [3]: 15 min
COC(=O)CNC(=O)C1CC(C)CCC1C(C)C (centres unmarked) [Gly Me Ester (WS-31), reference compound]	2.4	0.6	duration of action / onset on philtrum skin [2]: short duration of action (less than 1 hour) on the philtrum skin or slow onset (more than 5 minutes)
CCCCOC(=O)CNC(=O)[C@@H]1C[C@H](C)CC[C@H]1C(C)C [Gly nBu Ester]	4.0		Duration of cooling, Philtrum Skin [2]: 38 min; Duration of cooling, Eyelids/Ocular Surface [3]: 35 min
CCCOC(=O)CNC(=O)[C@@H]1C[C@H](C)CC[C@H]1C(C)C [Gly nPr Ester]	3.4	0.3	Duration of cooling, Philtrum Skin [2]: 42 min; Duration of cooling, Eyelids/Ocular Surface [3]: 54 min
CCOC(=O)[C@H](C)NC(=O)[C@@H]1C[C@H](C)CC[C@H]1C(C)C [L-Ala Et Ester]	3.1	0.4	Duration of cooling, Philtrum Skin [2]: 34 min; Duration of cooling, Eyelids/Ocular Surface [3]: 0 min
COC(=O)[C@H](C)NC(=O)[C@@H]1C[C@H](C)CC[C@H]1C(C)C [L-Ala Me Ester]	2.8	0.6	
CC(C)[C@@H]1CC[C@@H](C)C[C@H]1C(=O)N[C@H]1CCOC1=O [L-Hsl]	2.5		
COC(=O)[C@H](CC(C)C)NC(=O)[C@@H]1C[C@H](C)CC[C@H]1C(C)C [L-Leu Me Ester]	4.3		
CC(C)[C@@H]1CC[C@@H](C)C[C@H]1C(=O)N[C@@H](CCCCNC(=O)OCc1ccccc1)C(=O)OC(C)(C)C [L-Lys(Z) t-Bu Ester]	5.9		
COC(=O)[C@@H]1CCCN1C(=O)[C@@H]1C[C@H](C)CC[C@H]1C(C)C [L-Pro Me Ester]	3.3		
CCOC(=O)[C@H](CO)NC(=O)[C@@H]1C[C@H](C)CC[C@H]1C(C)C [L-Ser Et Ester]	1.8		
COC(=O)[C@@H](NC(=O)[C@@H]1C[C@H](C)CC[C@H]1C(C)C)C(C)C [L-Val Me Ester]	4.2		
CCOC(=O)C(C)N(C)C(=O)C1CC(C)CCC1C(C)C [N—Me-D-Ala Et Ester]	3.2		
CCOC(=O)CN(C)C(=O)[C@@H]1C[C@H](C)CC[C@H]1C(C)C [Sar Et Ester]	2.9	0.8	
CCNC(=O)C1CC(C)CCC1C(C)C (centres unmarked) [WS-3, reference compound]	3.7	0.2	duration of cooling (FIG. 1) [2]: 0.3 h; duration of action / onset on philtrum skin [2]: short duration of action (less than 1 hour) on the philtrum skin or slow onset (more than 5 minutes); irritation of skin / eye surfaces [5]: produced significant skin and eye irritation; skin coolness and refreshment [5]: did not enhance skin coolness or provide satisfactory refreshment
COc1ccc(NC(=O)[C@@H]2C[C@H](C)CC[C@H]2C(C)C)cc1 [WS-12, reference compound]	5.3	0.2	duration of action / onset on philtrum skin [2]: short duration of action (less than 1 hour) on the philtrum skin or slow onset (more than 5 minutes)
CC(C)[C@@H]1CC[C@@H](C)C[C@H]1C(=O)NC(C)(C)C [WS-14]	4.5	0.4	irritation of skin / eye surfaces [5]: produced significant skin and eye irritation; skin coolness and refreshment [5]: did not enhance skin coolness or provide satisfactory refreshment
CNC(=O)C(C)(C(C)C)C(C)C [WS-23, N-2,3-trimethyl-2-isopropylbutanamide]			duration of action / onset on philtrum skin [2]: short duration of action (less than 1 hour) on the philtrum skin or slow onset (more than 5 minutes); irritation of skin / eye surfaces [5]: produced significant skin and eye irritation; skin coolness and refreshment [5]: did not enhance skin coolness or provide satisfactory refreshment
CCOC(=O)CCNC(=O)[C@@H]1C[C@H](C)CC[C@H]1C(C)C [β-Ala Et Ester]	3.1	1.5	
